In patent US12077503B2, “Substituted cyclic amides and their use as herbicides” (FMC CORPORATION, priority 2015, dated 2024):

Legend:
Format in all cases: in vivo
[1] = system: lambsquarters (Chenopodium album); assay: Test C preemergence; conditions: for Plant response rating (scale of 0 to 100), Lambsquarters: 0 is no effect, 100 is complete control; for Plant response rating, Lambsquarters: scale 0 to 100, 0 no effect, 100 complete control
Procedure, shortened: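 Herbicidal effect, applied preemergence to sown seeds or postemergence to 1- to 4-leaf plants, was scored visually 13 to 15 d after application, 0 to 100 versus controls.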

[2] = system: Kochia (Kochia scoparia); assay: Test A preemergence
Procedure, shortened: (§1)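 Seeds sprayed preemergence with a directed soil spray, or plants at 2 to 10 cm height and one- to two-leaf stage sprayed postemergence, with test chemicals in a non-phytotoxic solvent mixture containing surfactant, in loam soil–sand blend. Injury rated visually against untreated controls after about 10 d in greenhouse, 0 (no effect) to 100 (complete control).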

[3] = system: giant foxtail (Setaria faberii); assay: Test A preemergence
Procedure, shortened: as §1

[4] = system: pigweed (Amaranthus retroflexus); assay: Test A preemergence; conditions: for Plant response rating, Pigweed: preemergence
[5] = system: ryegrass, Italian (Italian ryegrass, Lolium multiflorum); assay: Test A preemergence; conditions: for Plant response rating, Ryegrass, Italian: preemergence
Procedure, shortened: as §1

[6] = system: barnyardgrass (Echinochloa crus-galli); assay: Test A preemergence
Procedure, shortened: as §1

[7] = system: ragweed (common ragweed, Ambrosia elatior); assay: Test A preemergence; conditions: preemergence
Procedure, shortened: as §1

[8] = system: Kochia (Kochia scoparia); assay: Test A postemergence; conditions: postemergence
Procedure, shortened: as §1

[9] = system: Galium (catchweed bedstraw, Galium aparine); assay: Test A postemergence; conditions: postemergence
Procedure, shortened: as §1

[10] = system: giant foxtail (Setaria faberii); assay: Test A postemergence; conditions: postemergence
Procedure, shortened: as §1

[11] = system: pigweed (Amaranthus retroflexus); assay: Test A postemergence; conditions: postemergence
Procedure, shortened: as §1

[12] = system: ryegrass, Italian (Italian ryegrass, Lolium multiflorum); assay: Test A postemergence; conditions: postemergence
Procedure, shortened: as §1

[13] = system: corn (Zea mays); assay: Test A postemergence; conditions: postemergence
Procedure, shortened: as §1

[14] = system: blackgrass (Alopecurus myosuroides); assay: Test A postemergence; conditions: postemergence
Procedure, shortened: as §1

[15] = system: barnyardgrass (Echinochloa crus-galli); assay: Test A postemergence; conditions: postemergence
Procedure, shortened: as §1

[16] = system: ragweed (common ragweed, Ambrosia elatior); assay: Test A postemergence; conditions: postemergence
Procedure, shortened: as §1

[17] = system: wheat (Triticum aestivum); assay: Test A postemergence; conditions: postemergence
Procedure, shortened: as §1

[18] = system: ducksalad (Heteranthera limosa); assay: Test B flooded paddy test; conditions: Flood, 0 to 100 scale where 0 is no effect and 100 is complete control, 13 to 15 d
Procedure, shortened: (§2)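 Evaluation by eye, against controls, occurred 13–15 d post-treatment in a greenhouse, using a 0 (no effect) to 100 (complete control) scale. Application was into the paddy water, 3 cm deep over the soil, on 2-leaf plants.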

[19] = system: barnyardgrass (Echinochloa crus-galli); assay: Test B flooded paddy test; conditions: Flood, 0 to 100 scale where 0 is no effect and 100 is complete control, 13 to 15 d
Procedure, shortened: as §2

[20] = system: sedge, umbrella (small-flower umbrella sedge, Cyperus difformis); assay: Test B flooded paddy test; conditions: Flood; for Plant response rating, Sedge, Umbrella: 0 to 100 scale where 0 is no effect and 100 is complete control, 13 to 15 d
Procedure, shortened: as §2

[21] = system: rice (Oryra sativa); assay: Test B flooded paddy test; conditions: Flood, 0 to 100 scale where 0 is no effect and 100 is complete control, 13 to 15 d
Procedure, shortened: as §2

[22] = 125 g ai/ha, Preemergence, visual injury after approximately 10 d, 0 to 100 scale where 0 is no effect and 100 is complete control
[23] = 500 g ai/ha, preemergence, 0 to 100 scale, 0 = no effect, 100 = complete control
[24] = 125 g ai/ha, visual rating after approx. 10 d, 0 to 100 scale where 0 is no effect and 100 is complete control
[25] = 500 g ai/ha, 0 to 100 scale, 0 = no effect, 100 = complete control
[26] = 125 g ai/ha, visual injury after approximately 10 d, 0 to 100 scale (0 no effect, 100 complete control)
[27] = 500 g ai/ha, visual injury, 0 to 100 scale (0 no effect, 100 complete control), approx. 10 d
[28] = 125 g ai/ha, visual rating after approx. 10 d, 0 to 100 scale (0 no effect, 100 complete control)
[29] = 125 g ai/ha, preemergence, 0 to 100 scale (0 no effect, 100 complete control)
[30] = Preemergence, 500 g ai/ha, visual injury approx. 10 d
[31] = 125 g ai/ha, 0 to 100 scale (0 no effect, 100 complete control)
[32] = 125 g ai/ha, visual injury rating on 0 to 100 scale (0 no effect, 100 complete control), approx. 10 d
[33] = 500 g ai/ha, 0 to 100 scale, 0 no effect, 100 complete control
[34] = 125 g ai/ha, preemergence, visual rating after approx. 10 d, 0 to 100 scale where 0 is no effect and 100 is complete control

Structure (SMILES): CN1CC(c2ccc(C(C)(F)F)cc2)C(C(=O)Nc2cccc(F)c2F)C1=O (centres unmarked) [Compound 690]
- Plant response rating (scale of 0 to 100), Lambsquarters ([1]; 8 g ai/ha): 65
- Plant response rating (scale of 0 to 100), Lambsquarters ([1]; 16 g ai/ha): 65
- Plant response rating (scale of 0 to 100), Lambsquarters ([1]; 31 g ai/ha): 75
- Plant response rating, Lambsquarters ([1]; 62 g ai/ha): 85
- Plant response rating, Kochia [2, 22]: 80
- Plant response rating, Kochia [2, 23]: 90
- Plant response rating, Foxtail, Giant [3, 22]: 90
- Plant response rating, Foxtail, Giant [3, 23]: 90
- Plant response rating, Pigweed [4, 24]: 80
- Plant response rating, Pigweed [4, 25]: 90
- Plant response rating, Ryegrass, Italian [5, 24]: 60
- Plant response rating, Ryegrass, Italian [5, 25]: 70
- Plant response rating, Barnyardgrass [6, 22]: 90
- Plant response rating, Barnyardgrass [6, 23]: 90
- Plant response rating, Ragweed [7, 24]: 70
- Plant response rating, Ragweed [7, 25]: 80
- Plant response rating, Kochia [8, 26]: 50
- Plant response rating, Kochia [8, 27]: 70
- Plant response rating, Galium [9, 26]: 70
- Plant response rating, Galium [9, 27]: 70
- Plant response rating, Foxtail, Giant [10, 26]: 80
- Plant response rating, Foxtail, Giant [10, 27]: 80
- Plant response rating, Pigweed [11, 26]: 60
- Plant response rating, Pigweed [11, 27]: 70
- Plant response rating, Ryegrass, Italian [12, 26]: 50
- Plant response rating, Ryegrass, Italian [12, 27]: 60
- Plant response rating, Corn [13, 26]: 70
- Plant response rating, Corn [13, 27]: 80
- Plant response rating, Blackgrass [14, 28]: 60
- Plant response rating, Blackgrass [14, 27]: 70
- Plant response rating, Barnyardgrass [15, 28]: 80
- Plant response rating, Barnyardgrass [15, 27]: 80
- Plant response rating, Ragweed [16, 26]: 60
- Plant response rating, Ragweed [16, 27]: 70
- Plant response rating, Wheat [17, 26]: 50
- Plant response rating, Wheat [17, 27]: 60
- Plant response rating, Ducksalad ([18]; 250 g ai/ha): 75
- Plant response rating, Barnyardgrass ([19]; 250 g ai/ha): 50
- Sedge, Umbrella plant response rating ([20]; 250 g ai/ha, scale of 0 to 100 where 0 is no effect and 100 is complete control): 0
- Plant response rating, Rice ([21]; 250 g ai/ha): 0

Structure (SMILES): CN1CC(c2cccc(OC(F)(F)C(F)F)c2)C(C(=O)Nc2ccc(F)c(F)c2F)C1=O (centres unmarked) [Compound 429]
- Plant response rating, Lambsquarters ([1]; 31 g ai/ha): 60
- Plant response rating, Lambsquarters ([1]; 62 g ai/ha): 75
- Plant response rating, Lambsquarters ([1]; 125 g ai/ha): 75
- Plant response rating, Lambsquarters ([1]; 250 g ai/ha): 85
- Plant response rating, Kochia [2, 29]: 70
- Kochia plant response rating (0 to 100 scale, 0 is no effect, 100 is complete control) [2, 30]: 80
- Plant response rating, Foxtail, Giant [3, 29]: 90
- Foxtail, Giant plant response rating (0 to 100 scale, 0 is no effect, 100 is complete control) [3, 30]: 100
- Plant response rating, Pigweed [4, 31]: 80
- Pigweed plant response rating (0 to 100 scale, 0 is no effect, 100 is complete control) [4, 30]: 80
- Plant response rating, Ryegrass, Italian [5, 31]: 70
- Ryegrass, Italian plant response rating (0 to 100 scale, 0 is no effect, 100 is complete control) [5, 30]: 80
- Plant response rating, Barnyardgrass [6, 29]: 90
- Barnyardgrass plant response rating (0 to 100 scale, 0 is no effect, 100 is complete control) [6, 30]: 90
- Plant response rating, Ragweed [7, 31]: 50
- Kochia plant response rating [8, 32]: 60
- Plant response rating, Kochia [8, 33]: 70
- Galium plant response rating [9, 32]: 70
- Plant response rating, Galium [9, 33]: 70
- Foxtail, Giant plant response rating [10, 32]: 90
- Plant response rating, Foxtail, Giant [10, 33]: 90
- Pigweed plant response rating [11, 32]: 70
- Plant response rating, Pigweed [11, 33]: 80
- Ryegrass, Italian plant response rating [12, 32]: 60
- Plant response rating, Ryegrass, Italian [12, 33]: 80
- Corn plant response rating [13, 32]: 70
- Plant response rating, Corn [13, 33]: 80
- Blackgrass plant response rating [14, 32]: 50
- Plant response rating, Blackgrass [14, 33]: 70
- Barnyardgrass plant response rating [15, 32]: 90
- Plant response rating, Barnyardgrass [15, 33]: 90
- Ragweed plant response rating [16, 32]: 30
- Plant response rating, Ragweed [16, 33]: 50
- Wheat plant response rating [17, 32]: 50
- Plant response rating, Wheat [17, 33]: 60
- Plant response rating, Ducksalad ([18]; 250 g ai/ha): 100
- Plant response rating, Barnyardgrass ([19]; 250 g ai/ha): 65
- Plant response rating, Sedge, Umbrella ([20]; 250 g ai/ha): 0
- Plant response rating, Rice ([21]; 250 g ai/ha): 15

Structure (SMILES): O=C1NCC(c2cccc(OC(F)(F)C(F)F)c2)C1C(=O)Nc1cccc(F)c1F (racemic) [Compound 697]
- Plant response rating (scale of 0 to 100), Lambsquarters ([1]; 31 g ai/ha): 35
- Plant response rating, Lambsquarters ([1]; 62 g ai/ha): 40
- Plant response rating, Lambsquarters ([1]; 125 g ai/ha): 65
- Plant response rating, Lambsquarters ([1]; 250 g ai/ha): 60
- Plant response rating, Kochia [2, 34]: 30
- Plant response rating, Kochia [2, 23]: 80
- Plant response rating, Foxtail, Giant [3, 34]: 90
- Plant response rating, Foxtail, Giant [3, 23]: 90
- Plant response rating, Pigweed [4, 24]: 50
- Plant response rating, Pigweed [4, 25]: 50
- Plant response rating, Ryegrass, Italian [5, 24]: 40
- Plant response rating, Ryegrass, Italian [5, 25]: 50
- Plant response rating, Barnyardgrass [6, 34]: 90
- Plant response rating, Barnyardgrass [6, 23]: 90
- Plant response rating, Ragweed [7, 24]: 50
- Plant response rating, Ragweed [7, 25]: 60
- Plant response rating, Kochia [8, 26]: 60
- Plant response rating, Kochia [8, 27]: 60
- Plant response rating, Galium [9, 26]: 50
- Plant response rating, Galium [9, 27]: 50
- Plant response rating, Foxtail, Giant [10, 26]: 80
- Plant response rating, Foxtail, Giant [10, 27]: 80
- Plant response rating, Pigweed [11, 26]: 50
- Plant response rating, Pigweed [11, 27]: 50
- Plant response rating, Ryegrass, Italian [12, 26]: 20
- Plant response rating, Ryegrass, Italian [12, 27]: 30
- Plant response rating, Corn [13, 26]: 70
- Plant response rating, Corn [13, 27]: 80
- Plant response rating, Blackgrass [14, 26]: 30
- Plant response rating, Blackgrass [14, 27]: 40
- Plant response rating, Barnyardgrass [15, 26]: 80
- Plant response rating, Barnyardgrass [15, 27]: 90
- Plant response rating, Ragweed [16, 26]: 30
- Plant response rating, Ragweed [16, 27]: 50
- Plant response rating, Wheat [17, 26]: 20
- Plant response rating, Wheat [17, 27]: 40
- Plant response rating, Ducksalad ([18]; 500 g ai/ha): 90
- Plant response rating, Barnyardgrass ([19]; 500 g ai/ha): 90
- Plant response rating, Sedge, Umbrella ([20]; 500 g ai/ha): 0
- Plant response rating, Rice ([21]; 500 g ai/ha): 0
